Test results: patent US9187529B2 (priority 2011, dated 2015)
Several values for one entry are separate records, joined by “and”; a condition that tells them apart may be missing. Equal values may be shown once. Ends that are not written are not given here. Peptide text beside a SMILES is read from it.

Experiments:
[1] = test system: TSST-1 production of S. aureus MN8; type: cell-based, Staphylococcus aureus
S. aureus MN8 = type: cell-based, Staphylococcus aureus
[2] = rabbit, in vivo

Compound | TSST-1 % of No Peptide Control [1] | TSST-1 inhibition activity [1] | antimicrobial activity (S. aureus MN8) | signs of inflammation and vaginal irritation [2] | viable count (10^8 CFU/mL) (S. aureus MN8) | dose (as low as) giving complete inhibition of TSST-1 production [1] | inhibition of MN8 growth (S. aureus MN8)
SFPTTATYFPAFDLSAGSAQVA [SP-3] | 100 % of No Peptide Control | lacked antimicrobial and TSST-1 inhibition activity | lacked antimicrobial | – | – | – | –
C[C@H](NC(=O)[C@H](CO)NC(=O)[C@H](CCCCN)NC(=O)[C@H](Cc1c[nH]cn1)NC(=O)[C@H](CO)NC(=O)[C@H](CCCCN)NC(=O)[C@H](CCCCN)NC(=O)[C@H](CCCCN)NC(=O)[C@H](Cc1c[nH]cn1)NC(=O)[C@@H]1CCCN1C(=O)[C@H](CCCCN)NC(=O)[C@H](Cc1ccc(O)cc1)NC(=O)[C@H](CCCCN)NC(=O)[C@H](CCCCN)NC(=O)[C@H](CCCCN)NC(=O)[C@H](CCCCN)NC(=O)[C@@H]1CCCN1C(=O)[C@H](CCCCN)NC(=O)[C@@H](N)CO)C(=O)N[C@@H](CCCCN)C(=O)N[C@@H](CCCCN)C(=O)N[C@@H](CCCCN)C(=O)O [SP-1] (H-SKPKKKKYKPHKKKSHKSAKKK-OH) | – | – | – | No irritation or inflammation was observed | – | – | –
SFPTTKTYFPHFDLSHGSAQVK-agarose beads (not fully specified (C-terminus)) [Hbg-3] | – | retained TSST-1 inhibition activity | not antimicrobial | – | 21 and 22 and 16 and 20 and 23 | – | –
human neutrophil peptide-2 (CYCRIPACIAGERRYGTCIYQGRLWAFCC; listed as Homo sapiens) [HNP-2, reference compound] | – | highly inhibitory of production of TSST-1 | no antimicrobial activity was observed | – | – | 10^−3 μg/mL | approximately 1 log
human neutrophil peptide-1 [HNP-1, reference compound] | – | highly inhibitory of production of TSST-1 | no antimicrobial activity was observed | – | – | 10^−3 μg/mL | approximately 1 log
STKPFFYFLHTQVKASPTSHDG [Hbg-2] | – | comparably active as Hbg-1 | not antimicrobial | – | 24 and 22 and 30 and 25 and 23 | – | –
SFPTTKTYFPHFDLSHGSAQVK [Hbg-1] | – | – | No antimicrobial activity was observed | – | 20 and 22 and 17 and 21 and 19 and 25 | – | –
